The record followed here is patent US8455475B2 (Gruenenthal GmbH, priority 2009, dated 2013).

In assay [1] the target is T1, human B1R (bradykinin receptor 1) (Homo sapiens, UniProt P46663).
T1 construct: expressed in transfected cells; host or cells: CHO K1 cells
T1 sequence (P46663 1-353): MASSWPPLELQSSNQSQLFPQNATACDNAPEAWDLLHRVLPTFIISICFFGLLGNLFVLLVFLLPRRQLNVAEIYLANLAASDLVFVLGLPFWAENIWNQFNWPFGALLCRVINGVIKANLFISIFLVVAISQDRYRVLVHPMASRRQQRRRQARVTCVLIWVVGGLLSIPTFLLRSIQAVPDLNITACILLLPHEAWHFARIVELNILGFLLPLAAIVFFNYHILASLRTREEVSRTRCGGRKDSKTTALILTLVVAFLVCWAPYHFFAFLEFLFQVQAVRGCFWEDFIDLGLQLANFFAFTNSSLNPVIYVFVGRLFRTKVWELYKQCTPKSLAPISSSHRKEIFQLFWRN
In words: FLIPR Ca2+ assay (Fluo-4) on CHO K1 cells stably transfected with the human B1R gene (hB1R cells): % inhibition at 10 μM / IC50, agonist Lys-Des-Arg9-bradykinin. It is filed as cell-based. The conditions noted are these: for inhibition at 10 µM: CHO-K1, human B1R. A digest of the protocol: (§1)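 Stable CHO K1 lines, Fluo-4 dye, probenecid-containing buffer. Cpd 10 μM or dose range, 10–20 min, then EC80 agonist (h: Lys-Des-Arg9-BK; r: Des-Arg9-BK). Readout peak FC; % inhibition vs max; IC50 from n=2–3, N≥2.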

In assay [2] the target is T2, rat B1R (bradykinin receptor 1) (Rattus norvegicus, UniProt P97583).
T2 construct: expressed in transfected cells; host or cells: CHO K1 cells
T2 sequence (P97583 1-337): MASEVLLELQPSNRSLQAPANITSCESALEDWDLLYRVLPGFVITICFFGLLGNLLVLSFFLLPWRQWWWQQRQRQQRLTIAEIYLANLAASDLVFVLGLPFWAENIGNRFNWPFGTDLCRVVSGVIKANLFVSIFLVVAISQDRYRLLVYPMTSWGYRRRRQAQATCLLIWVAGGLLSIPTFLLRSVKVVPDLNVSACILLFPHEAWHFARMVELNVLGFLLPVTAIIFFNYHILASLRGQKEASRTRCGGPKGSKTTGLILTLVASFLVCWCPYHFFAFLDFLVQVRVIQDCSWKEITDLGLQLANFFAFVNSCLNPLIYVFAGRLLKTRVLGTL
Kind of assay: FLIPR Ca2+ assay (Fluo-4) on CHO K1 cells stably transfected with the B1R gene of the rat (rB1R cells): % inhibition at 10 μM / IC50, agonist Des-Arg9-bradykinin. It is filed as cell-based. The settings on record: for inhibition at 10 µM: CHO-K1, rat B1R. A digest of the protocol:
as §1

In the case of `O=C(NC1CCc2ccc(C(=O)N3CCC4(CC3)CCN(c3ccncc3)CC4)cc21)c1cc(F)c(F)cc1Cl` (stereo not shown) [IND_CC-228, 2-Chloro-4,5-difluoro-N-[6-(9-pyridin-4-yl-3,9-diazaspiro[5.5]undecane-3-carbonyl)-2,3-dihydro-1H-inden-1-yl]-benzamide], the values for the inhibition at 10 µM in assay [1] and in assay [2] were 100% and 104%, respectively.

In the case of `CC1(C)Cc2ccc(C(=O)N3CCC4(CC3)CCN(c3ccncc3)CC4)cc2C1NS(=O)(=O)Cc1ccccc1C(F)(F)F` (stereo not shown) [IND_CC-238, N-[2,2-Dimethyl-6-(9-pyridin-4-yl-3,9-diazaspiro[5.5]undecane-3-carbonyl)-1,3-dihydro-inden-1-yl]-1-[2-(trifluoromethyl)-phenyl]-methanesulfonic acid amide], the inhibition at 10 µM in assay [1] was determined as 99%; in assay [2] it was 100%.

As to `O=C(c1cccc2c1CC[C@H]2NS(=O)(=O)c1ccccc1Cl)N1CCC2(CCN(c3ccncc3)CC2)C1` [Example H-166, 2-Chloro-N-[(1R)-4-(8-pyridin-4-yl-3,8-diazaspiro[4.5]decane-3-carbonyl)-2,3-dihydro-1H-inden-1-yl]-benzenesulfonic acid amide], the inhibition at 10 µM is 21% in assay [1] and -4% in assay [2].

As to `CC1(C)Cc2ccc(C(=O)N3CCC4(CC3)CCN(c3ccncc3)CC4)cc2C1NC(=O)c1cc(Cl)ccc1Cl` (stereo not shown) [IND_CC-210, 2,5-Dichloro-N-[2,2-dimethyl-6-(9-pyridin-4-yl-3,9-diazaspiro[5.5]undecane-3-carbonyl)-1,3-dihydro-inden-1-yl]-benzamide], the inhibition at 10 µM amounted to 97% in assay [1] and 104% in assay [2].

Regarding `CC1(C)CC(NC(=O)c2ccc(Cl)s2)c2cc(C(=O)N3CCC4(CC3)CCN(c3ccncc3)CC4)ccc21` (stereo not shown) [Ind_CC-054, 5-chloro-N-[3,3-dimethyl-6-(9-pyridin-4-yl-3,9-diazaspiro[5.5]undecane-3-carbonyl)-1,2-dihydro-inden-1-yl]-thiophene-2-carboxylic acid amide], the values for the inhibition at 10 µM in assay [1] and in assay [2] were 96% and 102%, respectively.

With `CN(C(=O)c1sccc1Cl)C1CCc2ccc(C(=O)N3CCC4(CC3)CCN(c3ccncc3)CC4)cc21` (stereo not shown) [Ind_CC-016, 3-chloro-N-methyl-N-[6-(9-pyridin-4-yl-3,9-diazaspiro[5.5]undecane-3-carbonyl)-2,3-dihydro-1H-inden-1-yl]-thiophene-2-carboxylic acid amide], the results for the inhibition at 10 µM in assay [1] and in assay [2] were 100% and 102%, respectively.

Take `O=C(N[C@H]1CCCc2ccc(C(=O)N3CCC4(CCN(c5ccncc5)CC4)C3)cc21)c1ccccc1Cl` [Example H-12, 2-chloro-N-[(1S)-7-(8-pyridin-4-yl-3,8-diazaspiro[4.5]decane-3-carbonyl]-1,2,3,4-tetrahydro-naphthalen-1-yl]-benzamide]: the inhibition at 10 µM in assay [1] worked out at 97%; in assay [2] it was 102%.

In the case of `O=C(NC1CCc2ccc(C(=O)N3CCC4(CC3)CCN(c3ccncc3)C4)cc21)c1cccc(C(F)(F)F)c1Cl` (stereo not shown) [IND_CC-233, 2-Chloro-N-[6-(2-pyridin-4-yl-2,8-diazaspiro[4.5]decane-8-carbonyl)-2,3-dihydro-1H-inden-1-yl]-3-(trifluoromethyl)-benzamide], the inhibition at 10 µM in assay [1] stood at 86%; in assay [2] it was 98%.

As to `O=C(NC1CCc2ccc(C(=O)N3CCC4(CC3)CCN(c3ccncc3)C4)cc21)c1c(F)cccc1Cl` (stereo not shown) [IND_CC-264, 2-Chloro-6-fluoro-N-[6-(2-pyridin-4-yl-2,8-diazaspiro[4.5]decane-8-carbonyl)-2,3-dihydro-1H-inden-1-yl]-benzamide], the figures for the inhibition at 10 µM in assay [1] and in assay [2] were 97% and 106%, respectively.

As to `CN(C(=O)c1ccccc1Cl)C1CCc2ccc(C(=O)N3CCC4(CCN(c5ccncc5)CC4)C3)cc21` (stereo not shown) [Example H-49, 2-chloro-N-methyl-N-[6-(8-pyridin-4-yl-3,8-diazaspiro[4.5]decane-3-carbonyl)-2,3-dihydro-1H-inden-1-yl]-benzamide], in assay [1] (human B1R, 10 µM), the “% Inhibition (human B1R) at 10 μM” value came out at 99%. Besides, in assay [2] (rat B1R, 10 µM), the “% Inhibition (rat B1R) at 10 μM” value is recorded as 100%.

As for `O=C(NC1CCc2ccc(C(=O)N3CCC4(CC3)CCN(c3cccnc3)CC4)cc21)c1ccccc1Cl` (stereo not shown) [Ind_CC-096, 2-chloro-N-[6-(9-pyridin-3-yl-3,9-diazaspiro[5.5]undecane-3-carbonyl)-2,3-dihydro-1H-inden-1-yl]-benzamide], the inhibition at 10 µM in assay [1] turned out to be 91%; in assay [2], 101%.

A word on the inhibition: it is the relative decrease from the control value, in per cent.
